# Columns and labels:
# Test in all cases: relative viability (nuclei count vs DMSO), 5 days (fraction); higher = more cells survive
# [1] = compound: CC[C@H](CO)Nc1nc(NCc2ccccc2)c2ncn(C(C)C)c2n1 [Seliciclib] + Nc1ncn([C@H]2C[C@H](O)[C@@H](CO)O2)c(=O)n1 [Decitabine] (partner 2 µM)
# Outline: (§1)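 Relative viability was taken as the ratio of nuclei in treated wells to nuclei in vehicle wells. Lung cancer cell lines in 1536-well plates received compounds by pin tool one day after seeding, either one drug alone or a fixed anchor-drug dose plus five library-drug doses (not always all listed) in √10 steps. Nuclei were counted on 4× images after 5 days of treatment, and values are medians of duplicate plates.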
# [2] = compound: CC[C@H](CO)Nc1nc(NCc2ccccc2)c2ncn(C(C)C)c2n1 [Seliciclib] + CCNC(=O)c1noc(-c2cc(C(C)C)c(O)cc2O)c1-c1ccc(CN2CCOCC2)cc1 [Luminespib] (partner 0.01 µM)
# Outline: as §1
# [3] = compound: CC[C@H](CO)Nc1nc(NCc2ccccc2)c2ncn(C(C)C)c2n1 [Seliciclib] + O=C(c1cc(Cc2n[nH]c(=O)c3ccccc23)ccc1F)N1CCN(C(=O)C2CC2)CC1 [Olaparib] (partner 8 µM)
# Outline: as §1
# [4] = compound: CC[C@H](CO)Nc1nc(NCc2ccccc2)c2ncn(C(C)C)c2n1 [Seliciclib] + CS(=O)(=O)CCNCc1ccc(-c2ccc3ncnc(Nc4ccc(OCc5cccc(F)c5)c(Cl)c4)c3c2)o1 [Lapatinib] (partner 2 µM)
# Outline: as §1
Cell Line,relative viability ([1]; first compound 0.08 µM),relative viability ([1]; first compound 0.253 µM),relative viability ([1]; first compound 0.8 µM),relative viability ([1]; first compound 2.53 µM),relative viability ([1]; first compound 8 µM),relative viability ([2]; first compound 0.08 µM),relative viability ([2]; first compound 0.253 µM),relative viability ([2]; first compound 0.8 µM),relative viability ([2]; first compound 2.53 µM),relative viability ([2]; first compound 8 µM),relative viability ([3]; first compound 0.08 µM),relative viability ([3]; first compound 0.253 µM),relative viability ([3]; first compound 0.8 µM),relative viability ([3]; first compound 2.53 µM),relative viability ([3]; first compound 8 µM),relative viability ([4]; first compound 0.08 µM),relative viability ([4]; first compound 0.253 µM),relative viability ([4]; first compound 0.8 µM),relative viability ([4]; first compound 2.53 µM),relative viability ([4]; first compound 8 µM)
NCI-H441,0.262,0.265,0.258,0.201,0.256,0.319,0.296,0.341,0.299,0.299,0.525,0.451,0.562,0.466,0.448,–,–,–,–,–
NCI-H23,0.278,0.293,0.316,0.288,0.268,0.202,0.206,0.209,0.211,0.242,0.346,0.31,0.377,0.269,0.262,0.97,1.08,1.19,0.657,0.851
HARA,0.456,0.655,0.56,0.474,0.6,0.727,0.764,0.65,1.12,0.581,1.05,0.66,0.784,0.909,0.924,0.798,0.614,0.781,0.374,0.701
NCI-H1792,0.45,0.506,0.608,–,0.556,0.43,0.464,0.364,–,0.35,0.338,0.341,0.399,–,0.322,0.947,0.889,0.855,0.776,0.846
NCI-H1703,–,–,–,–,–,–,–,–,–,–,0.467,0.54,0.528,0.439,0.352,1.07,0.861,1.03,1.14,0.846
NCI-H358,0.204,0.216,0.221,0.193,0.176,0.31,0.385,0.21,–,0.186,0.588,0.595,0.546,0.561,0.346,0.429,0.5,0.407,0.305,0.253
CAL-12T,–,–,–,–,–,0.351,0.411,0.363,0.388,0.313,0.759,0.712,0.742,0.585,0.472,0.619,0.793,0.551,0.67,0.276
NCI-H727,0.874,0.88,0.82,0.441,0.861,0.338,0.447,0.372,0.321,0.271,0.873,0.805,0.596,0.74,0.731,0.936,0.75,0.556,0.518,0.634
NCI-H2085,0.518,0.501,0.563,0.49,0.483,0.508,0.462,0.414,0.398,0.372,0.734,0.845,0.73,0.738,0.63,0.739,0.793,0.667,0.635,0.497
NCI-H1395,0.729,0.621,0.681,–,0.705,0.709,0.722,0.726,0.588,0.669,0.459,0.422,0.43,–,0.448,1.03,0.811,1.09,0.871,0.861
SW 900,0.45,0.403,0.457,0.478,0.346,0.148,0.147,0.14,0.17,0.168,0.769,0.89,0.79,0.721,0.437,–,–,–,–,–
NCI-H460,0.455,0.57,0.446,0.591,0.388,0.0402,0.0324,0.0419,0.0357,0.0269,0.496,0.517,0.472,0.458,0.359,0.895,1.04,0.922,1.34,0.826
A549,0.279,0.235,0.188,0.286,0.248,–,–,–,–,–,0.3,0.41,0.251,0.26,0.361,1,0.913,0.991,0.981,0.623
IA-LM,–,–,–,–,–,–,–,–,–,–,0.8,0.973,0.879,0.72,0.745,0.537,1.07,0.719,0.977,0.82
EKVX,0.299,0.224,0.366,0.184,0.377,–,1.03,0.794,0.821,0.642,0.772,1.08,0.749,0.682,0.775,0.197,0.473,0.18,0.166,0.216
ChaGo-K-1,0.519,0.472,0.509,0.516,0.475,0.587,0.362,0.711,0.536,0.603,0.424,0.464,0.379,0.425,0.359,–,–,–,–,–
SK-MES-1,0.386,0.371,0.349,0.451,0.458,0.814,0.854,0.733,1.1,0.601,0.764,0.726,0.647,0.564,0.342,0.476,0.397,0.404,0.489,0.446
NCI-H1755,0.71,0.644,0.719,0.759,0.721,0.573,0.565,0.444,0.406,0.407,0.882,0.914,0.873,0.885,0.846,1.02,1.02,1.02,0.963,1.03
NCI-H2228,–,–,–,–,–,0.157,0.155,0.14,0.185,0.149,0.905,0.649,0.741,0.577,0.654,1.07,1.35,1.02,1.2,0.847

# Source: the supplement of paper PMC10307832
